Assay results as given in patent EP1161524B1, “CELLS COEXPRESSING AN AMYLOID PRECURSOR PROTEIN AND AN $g(a)-SECRETASE AND THEIR USES IN TEST METHODS AND DIAGNOSTICS” (Fahrenholz, Falk, priority 1999, dated 2000).

Experiments:
[1] = biological target: T1, gereinigtes ADAM 10 (Bos taurus, UniProt Q10741); assay: Inhibition of the proteolytic cleavage of Aβ(11-28) by purified ADAM 10 (metalloproteinase inhibitors); type: biochemical, Rind (Bos taurus); conditions: inhibitor concentration 1 mM
T1 construct: daß die proteolytisch aktivierte Form der Disintegrin-Metalloprotease ADAM 10 im wesentlichen in der Plasmamembranen lokalisiert ist; from tissue; host or cells: bovine kidney plasma membranes
T1 sequence (Q10741 214-748): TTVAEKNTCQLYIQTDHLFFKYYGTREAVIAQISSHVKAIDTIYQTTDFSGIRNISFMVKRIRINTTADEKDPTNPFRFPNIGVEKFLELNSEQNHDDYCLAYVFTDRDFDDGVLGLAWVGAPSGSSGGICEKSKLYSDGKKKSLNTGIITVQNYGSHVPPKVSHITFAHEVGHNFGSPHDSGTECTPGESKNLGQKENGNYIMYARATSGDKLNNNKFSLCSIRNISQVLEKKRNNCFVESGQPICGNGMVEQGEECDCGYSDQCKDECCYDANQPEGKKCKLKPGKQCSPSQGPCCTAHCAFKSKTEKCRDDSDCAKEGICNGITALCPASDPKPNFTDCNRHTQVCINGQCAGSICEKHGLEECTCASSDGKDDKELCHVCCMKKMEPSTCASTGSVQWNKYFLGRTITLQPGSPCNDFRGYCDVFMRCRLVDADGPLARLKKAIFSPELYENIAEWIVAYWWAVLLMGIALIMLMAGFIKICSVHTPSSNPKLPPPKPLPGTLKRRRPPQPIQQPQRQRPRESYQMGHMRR
Protocol: Peptide einer Endkonzentration von 0,3 mM wurden mit 2 µg gereinigten Enzym in 50 µl 50 mM EPPS pH 8,3, 250 mM NaCl bei 37°C 30 Minuten oder 6 Stunden inkubiert. Die Reaktionen wurden mit 2 µl TFA gestoppt. Meßproben wurden mit Hilfe von HPLC auf einer Vydac (The Separation Group, Hesperia, Calif. USA) RP 18 Säule (5 µm, 250 x 4,6 mm) analysiert. Die Peptide wurden mit einem Puffersystem von 0,1 % TFA in Wasser (Puffer A) und 0,1 % TFA, 9,9 % Wasser, 90 % Acetonitril (Puffer B) aufgetrennt, wobei der folgende Gradient angelegt wurde: 0 % B, 5 Min.; 0 bis 70 % B innerhalb 45 Min. Das Molekulargewicht der Proteolyseprodukte wurde mit ESI-Massenspektrometrie bestimmt. Für die Berechnung der prozentualen Spaltung wurde die Peakfläche, die ein Peptid ergab, das ohne Enzym inkubiert und ansonsten identisch behandelt wurde, als Referenz für 100 % herangezogen.
Einige Metalloproteinase-Inhibitoren wurden auf ihre Fähigkeit, die proteolytische Spaltung von Aβ(11-28) durch gereinigtes ADAM 10 zu inhibieren, getestet.

[2] = tested on: HEK-ADAM 10-Zellen; assay: Immunoblot analysis of APPsα secretion into the medium (antibody 6E10), HEK cells stably expressing ADAM 10; type: cell-based; conditions: Homo sapiens, HEK293; HEK-ADAM 10 cells, 1 µm PMA, 4 h, Fig. 5 lanes 4 and 5; read-out: Vergrößerung der α-Sekretaseaktivität (APPsα-Freisetzung)
Excerpt: (§1) Fig. 5 zeigt die Sekretion von APPsα von HEK- und HEK-ADAM-10-Zellen. • (A) Die Zellen wurden in Gegenwart der bezeichneten Verbindung inkubiert. Nach 4 Stunden wurde das Medium gesammelt, die Proteine präzipitiert und einer Immunoblotanalyse mit dem monoklonalen Antikörper 6E10, gefolgt von einem sekundären [^35S]-markierten Anti-Maus-IgG-Antikörper, unterzogen. • (B) Quantitative Analyse des sekretierten APPsα. Die APPsα entsprechenden radioaktiven Banden wurden mit Hilfe eines Bio-Imaging Analyzer BAS-1800 quantifiziert. Die Meßwerte wurden wie in dem Beispiel beschrieben, auf verschiedene Proteinmengen normiert. […]
(§2) 8.10^5 HEK und HEK-ADAM10-Zellen (HEK-Zellen, die ADAM 10 stabil exprimieren, Verfahren wie oben) wurden auf 5 cm Zellkulturschalen, die mit Poly-L-Lysin behandelt worden waren, ausgesät und fast bis zu Konfluenz hochgezogen. […] Die radioaktiven Banden, die APPsα entsprachen, wurden mit Hilfe des Bio-Imaging-Analysers-BAS-1800 (Fuji) quantifiziert. […]
(§3) Die α-Sekretaseaktivität in HEK-ADAM 10 Zellen wurde mit der Aktivität, die in untransfizierten HEK-Zellen gefunden wurde, verglichen. […] Immunoblotexperimente und Immunopräzipitation nach metabolischer [^35S]-Markierung wurden durchgeführt, um die α-Sekretaseaktivität zu quantifizieren (Fig. 5 und Fig. 6). […]

[3] = tested on: HEK-Zellen; assay: Immunoblot analysis of APPsα secretion into the medium (antibody 6E10), untransfected HEK cells; type: cell-based; conditions: Homo sapiens, HEK293, 1 µm PMA, 4 h, Fig. 5 lanes 1 and 2, read-out: Erhöhung der APPsα-Freisetzung
Excerpt: as §1, §2, §3

Row | SMILES | Inhibierung der proteolytischen Spaltung von Aβ(11-28) durch gereinigtes ADAM 10 [1] | fold induction at 1 µM [2] | fold induction at 1 µM [3]
1 | c1cnc2c(c1)ccc1cccnc12 [1,10-Phenanthrolin] | inhibierte | – | –
2 | CCCCCCCCCCCCCC(=O)O[C@@H]1[C@@H](C)[C@@]2(O)[C@@H](C=C(CO)C[C@]3(O)C(=O)C(C)=C[C@@H]23)[C@@H]2C(C)(C)[C@]12OC(C)=O [PMA, Phorbol-12-myristat-13-acetat] | – | 2.5 | ~6
3 | OC(CS)C(O)CS (stereo not shown) [DTT] | vollständig inhibiert | – | –
